From PubChem BioAssay (NCI) come the findings set out here.

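Five concentrations, 48 hours, 96-well plates. TGI marks complete inhibition of growth.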

Test systems include ACHN renal; CAKI-1 renal; HCT-116 colon; HS 578T breast; IGROV1 ovarian; LOX IMVI melanoma; RXF 393 renal; SF-268 CNS; SF-295 CNS; SW-620 colon.
Holding throughout (assay): NCI-60 cell line screen, 48 h

On to `CCOC(=O)C1(Cc2ccc(C)cc2)Cc2ccc(C)cc2C1=O` (stereo not given), for which the TGI in the test with ACHN renal was greater than 100 µM; in the test on CAKI-1 renal, greater than 100 µM; with HCT-116 colon, greater than 60.2 µM; in the test on HS 578T breast it was greater than 100 µM; in the test on IGROV1 ovarian, greater than 100 µM; in the test with LOX IMVI melanoma, greater than 65 µM. In addition, the TGI with RXF 393 renal was 29.5 µM; in the test with SF-268 CNS, greater than 100 µM; in the test on SF-295 CNS it was greater than 86.5 µM; with SW-620 colon, greater than 100 µM.

In the case of `CSc1nc2c(c(N(C)C)n1)C=Nn1c(nc3ccccc31)S2`, the TGI in the test on ACHN renal, in the test with CAKI-1 renal, in the test with HCT-116 colon, with HS 578T breast, with IGROV1 ovarian and in the test on LOX IMVI melanoma was greater than 100 µM in each case. For the same molecule, the TGI with RXF 393 renal, with SF-268 CNS, with SF-295 CNS and in the test on SW-620 colon was greater than 100 µM each time.

In the case of `COC(=O)C1Cc2c(C)cccc2C1=O` (stereo not given), the TGI with ACHN renal, in the test with CAKI-1 renal, with HCT-116 colon, with HS 578T breast, in the test on IGROV1 ovarian and with LOX IMVI melanoma was greater than 100 µM in each case. Also, the TGI in the test with RXF 393 renal, with SF-268 CNS, in the test on SF-295 CNS and in the test with SW-620 colon was greater than 100 µM throughout.

On to `O=[N+]([O-])/C(C(Cl)=C(Cl)Cl)=C1\Nc2ccccc2O1`, for which the TGI in the test on ACHN renal, in the test with CAKI-1 renal, in the test with HCT-116 colon, with HS 578T breast, in the test on IGROV1 ovarian and with LOX IMVI melanoma was greater than 100 µM each time. The TGI in the test with RXF 393 renal, in the test with SF-268 CNS, in the test on SF-295 CNS and with SW-620 colon was greater than 100 µM each time.

Regarding `COc1ccc(CN2C(=O)CCC/C=C\[C@H]2CI)cc1`, the TGI in the test with ACHN renal amounted to 27.3 µM; in the test on CAKI-1 renal, 21.9 µM; in the test with HCT-116 colon, 24 µM; in the test on HS 578T breast, 33.2 µM; in the test with IGROV1 ovarian it was 29 µM; in the test on LOX IMVI melanoma it was 34 µM. The TGI in the test with RXF 393 renal was determined as 17.2 µM; in the test with SF-268 CNS, 27.2 µM; in the test on SF-295 CNS it was 26.3 µM; in the test on SW-620 colon, 23.8 µM.

Turning to `N#CC(c1ccc(O)cc1)N1CCN(C(C#N)c2ccc(O)cc2)CC1` (stereo not given), the TGI in the test with ACHN renal, with CAKI-1 renal, with HCT-116 colon, in the test on HS 578T breast, in the test with IGROV1 ovarian and in the test with LOX IMVI melanoma was greater than 100 µM throughout. In addition, the TGI was greater than 92.5 µM in the test on RXF 393 renal, 64.4 µM with SF-268 CNS, greater than 100 µM with SF-295 CNS and greater than 100 µM in the test with SW-620 colon.

Take `COc1cc2c(cc1OC)C(=O)N(c1ccc(O)cc1)C2`: the TGI with ACHN renal, in the test with CAKI-1 renal, with HCT-116 colon, with HS 578T breast, with IGROV1 ovarian and in the test on LOX IMVI melanoma was greater than 100 µM in each case. The TGI in the test with RXF 393 renal, in the test on SF-268 CNS, in the test with SF-295 CNS and with SW-620 colon was greater than 100 µM in each case.

With `NC1=CN(CCCO)C2=N/C(=C\c3ccco3)C(=O)N12`, the TGI in the test on ACHN renal, in the test on CAKI-1 renal, with HCT-116 colon, with HS 578T breast, with IGROV1 ovarian and in the test with LOX IMVI melanoma was greater than 100 µM each time. Further, the TGI with RXF 393 renal, in the test with SF-268 CNS, in the test on SF-295 CNS and in the test on SW-620 colon was greater than 100 µM each time.

Take `CCC1(O)C=CC(=O)C=C1`: the TGI in the test with ACHN renal was 49 µM; in the test on CAKI-1 renal, greater than 100 µM; in the test on HCT-116 colon, greater than 100 µM; with HS 578T breast, greater than 100 µM; in the test on IGROV1 ovarian, 40.6 µM; with LOX IMVI melanoma, 32.4 µM. In addition, the TGI in the test with RXF 393 renal was 38.2 µM; in the test with SF-268 CNS, 52 µM; with SF-295 CNS it was greater than 100 µM; with SW-620 colon it was greater than 100 µM.

`COC(=O)[C@]1(C)CCCn2c(=O)n(-c3ccccc3)c(=O)n21`: the TGI in the test with ACHN renal, with CAKI-1 renal, in the test with HCT-116 colon, in the test with HS 578T breast, in the test on IGROV1 ovarian and in the test with LOX IMVI melanoma was greater than 100 µM throughout. The TGI with RXF 393 renal, in the test with SF-268 CNS, with SF-295 CNS and with SW-620 colon was greater than 100 µM each time.

As for `Nc1c(Br)cc(-c2cc(Br)c(N)c(Br)c2)cc1Br`, the TGI with ACHN renal, with CAKI-1 renal, with HCT-116 colon, in the test with HS 578T breast, in the test on IGROV1 ovarian and in the test with LOX IMVI melanoma was greater than 100 µM each time. Also, the TGI in the test on RXF 393 renal, with SF-268 CNS, with SF-295 CNS and in the test on SW-620 colon was greater than 100 µM throughout.

For `COC(=O)C(=O)C(C(=O)C(=O)Nc1ccccc1C(=O)OC)c1nc2ccc(C(=O)c3ccccc3)cc2[nH]c1=O` (stereo not given), the TGI in the test with ACHN renal, with CAKI-1 renal, with HCT-116 colon, in the test on HS 578T breast, with IGROV1 ovarian and in the test with LOX IMVI melanoma was greater than 100 µM in each case. In addition, the TGI in the test on RXF 393 renal, in the test with SF-268 CNS, with SF-295 CNS and in the test with SW-620 colon was greater than 100 µM throughout.
